Measurements reported in ChEMBL document CHEMBL4834422, “New Tyramine- and Aporphine-Type Alkamides with NO Release Inhibitory Activities from Piper puberulum” (J Nat Prod, 2021).

Assays:
[1] = test system: BV-2; test: Antineuroinflammatory activity against mouse BV2 cells assessed as inhibition of LPS-induced NO production incubated for 20 hrs by Griess assay; assay type: functional, cell-based; settings: BV-2, 20 h
[2] = test system: BV-2; test: Cytotoxicity against mouse BV2 cells assessed as reduction in cell viability at 1 to 25 uM after 24 hrs by MTT assay; assay type: cell-based; settings: bv-2, 24 h, dose 1-25 µM

COc1cc(/C=C/C(=O)NCCc2ccc(O)c(OC)c2)ccc1O
IC50 [1]: > 50 µM

COc1cc(/C=C\C(=O)NCCc2ccc(O)cc2)ccc1O
Activity [2]: Non-Toxic
IC50 [1]: 22 µM

COc1c(O)cc2c3c1-c1ccccc1[C@H](O)[C@H]3N(C(C)=O)CC2
IC50 [1]: > 50 µM

COc1cc(/C=C\C(=O)NCCc2ccc(O)cc2)cc(OC)c1O
IC50 [1]: > 50 µM

NC(=O)c1cn(CCc2ccc(O)cc2)c(=O)c2c(O)ccc(O)c12
IC50 [1]: > 50 µM

COc1ccc(O)c(C(=O)NCCc2ccc(O)cc2)c1
IC50 [1]: > 50 µM

COc1c2c3c(c4c1OCO4)-c1ccccc1[C@H](O)[C@H]3N(C(C)=O)CC2
Activity [2]: Non-Toxic
IC50 [1]: 16 µM

COc1cccc(/C=C/C(=O)N2CCCC2)c1
IC50 [1]: > 50 µM

COc1cc2c3c(c1OC)-c1ccccc1[C@H](O)[C@H]3N(C(C)=O)CC2
IC50 [1]: > 50 µM

COc1ccc(CCNC(=O)c2cc(O)ccc2O)cc1
Activity [2]: Non-Toxic
IC50 [1]: 7 µM

COc1c(O)c(OC)c2c3c1CCN(C(C)=O)[C@@H]3[C@@H](O)c1ccccc1-2
IC50 [1]: > 50 µM

COc1cc([C@H]2c3c(cc(OC)c(O)c3OC)C=C(C(=O)NCCc3ccc(O)cc3)[C@@H]2C(=O)NCCc2ccc(O)cc2)cc(OC)c1O
IC50 [1]: > 50 µM

COc1c2c3c(c(OC)c1OC)-c1ccccc1[C@H](O)[C@H]3N(C(C)=O)CC2
IC50 [1]: > 50 µM

O=CN1CCc2cc3c(c4c2[C@H]1[C@@H](O)c1ccccc1-4)OCO3
Activity [2]: Non-Toxic
IC50 [1]: 6.8 µM

CC(=O)N1CCc2cc3c(c4c2[C@H]1[C@@H](O)c1ccccc1-4)OCO3
Activity [2]: Non-Toxic
IC50 [1]: 9 µM

COc1ccc(O)c(C(=O)NCCc2ccc(O)c(OC)c2)c1
Activity [2]: Non-Toxic
IC50 [1]: 26 µM

COc1ccc(CCNC(=O)c2c(O)ccc(O)c2OC)cc1
Activity [2]: Non-Toxic
IC50 [1]: 1.4 µM

COc1c(OC)c(OC)c2c3c(cc4ccccc42)NC(=O)c13
Activity [2]: Non-Toxic
IC50 [1]: 12 µM

COc1ccc(CCNC(=O)c2cc(OC)ccc2O)cc1
IC50 [1]: > 50 µM

COc1ccc(OC)c(C(=O)NCCc2ccc(O)c(OC)c2)c1
IC50 [1]: > 50 µM

O=C(NCCc1ccc(O)cc1)c1ccc(O)c(O)c1
Activity [2]: Non-Toxic
IC50 [1]: 21 µM

COc1cc2c3c(cc4ccccc4c3c1OC)NC2=O [CEPHARANONE B]
IC50 [1]: > 50 µM

O=C1c2ccccc2-c2c3c(cc4ccnc1c24)OCO3 [LIRIODENINE]
Activity [2]: Non-Toxic
IC50 [1]: 5 µM

CN(C)c1ccc(O)c2c1C[C@H]1C[C@H]3[C@H](N(C)C)C(O)=C(C(N)=O)C(=O)[C@@]3(O)C(O)=C1C2=O [MINOCYCLINE]
IC50 [1]: 15 µM

O=C(/C=C/c1ccc(O)cc1)NCCc1ccc(O)cc1 [N-P-COUMAROYL TYRAMINE]
Activity [2]: Non-Toxic
IC50 [1]: 2.2 µM

COc1cc(/C=C/C(=O)NCCc2ccc(O)cc2)ccc1O [N-TRANS-FERULOYL TYRAMINE]
Activity [2]: Non-Toxic
IC50 [1]: 18 µM

COc1cc2c3c(cc4ccccc4c3c1OC)NC(=O)C2=O [NORCEPHARADIONE]
Activity [2]: Non-Toxic
IC50 [1]: 37 µM

CCCCC/C=C/C=C/C(=O)NCC(C)C [PELLITORIN]
Activity [2]: Non-Toxic
IC50 [1]: 45 µM

COc1cc2c3c(cc4ccccc4c3c1O)NC2=O [PIPEROLACTAM A]
IC50 [1]: > 50 µM

COc1cc(/C=C/C(=O)NCCc2ccc(O)cc2)cc(OC)c1O [TRANS-N-SINAPOYLTYRAMINE]
IC50 [1]: > 50 µM
